# Test results reported in publication PMC8457749, “Design, Synthesis, and Anticancer Activity Evaluation of Hybrids of Azoles and Barbituric Acids” (Iranian Journal of Pharmaceutical Research : IJPR, 2021).
# Assays:
# HCT116 cell line = test system: HCT116 cell line; set-up: method as in earlier work; settings: cited from earlier work
# MCF-7 cell line = test system: MCF-7 cell line; set-up: method as in earlier work; settings: cited from earlier work
# BEL-7402 cells [1] = assay: MTT antiproliferative assay, BEL-7402; type: cell-based, human; settings: for inhibition at 100 µM / IC50: Homo sapiens, Bel-7402, 48 h; for inhibition at 100 µM: read-out: Growth Inhibition at 100 μM (%) BEL-7402; for IC50: read-out: IC50 BEL-7402; for Selectivity index BEL-7402: IC50 on normal cells (L02)/IC50 on tumor cells (BEL-7402)
# Description: (§1) The antiproliferative activity of the target compounds against the panel of three different human cancer cell lines, liver (BEL-7402), colorectal (HCT-116), and breast (MCF-7) cell lines was evaluated using a standard MTT-based colorimetric assay. All cell lines were obtained from the Key Laboratory of Natural Resources and Functional Molecules of the Changbai Mountain (Yanbian University) and maintained in Dulbecco’s modified Eagle’s medium (DMEM) and RPMI Media 1640 (RPMI1640), supplemented with 10% foetal bovine serum (FBS) at 37 °C in a humidified atmosphere containing 5% CO2.
# (§2) The cells were plated in 96-well plates at appropriate densities to ensure exponential growth throughout the experimental period (9 × 10^3 cells per well) and then allowed to adhere for 24 h. the cells were then treated for 48 h with each compound. After 48 h of incubation, 10 μL of MTT solution was added to each well to a final concentration of 2 mg/mL. the plates were then incubated for a further 4 h. After incubation, the MTT solution was removed and 150 μL of DMSO was added to each well for coloration. The plates were shaken vigorously for 10 min at room temperature to ensure complete solubilisation. The optometric density (OD) was read on a microplate reader (EL × 800, BioTek, Highland Park, Winooski, VT, USA) at 492 nm, and the data were subsequently analysed. The percentage of cell growth inhibition was calculated from the following Equation:
# (§3) Inhibitory rate (%) = [1 − (ODtreated − ODblank)/(ODcontrol − ODblank)] × 100%
# (§4) To obtain the antiproliferative activity of compounds 3a-3s and 4a-4d, the compounds were selected in the same way with four serial concentrations (1, 10, 50 and 100 μM) of those compounds. The optometric density (OD) reading was then used to calculate the IC50.
# HCT-116 cells = assay: MTT antiproliferative assay, HCT-116; type: cell-based, human; settings: for inhibition at 100 µM / IC50: Homo sapiens, HCT-116, 48 h; for inhibition at 100 µM: read-out: Growth Inhibition at 100 μM (%) HCT-116; for IC50: read-out: IC50 HCT-116; for Selectivity index HCT-116: IC50 on normal cells (L02)/IC50 on tumor cells (HCT-116)
# Description: as §1, §2, §3, §4
# MCF-7 cells = assay: MTT antiproliferative assay, MCF-7; type: cell-based, human; settings: for inhibition at 100 µM / IC50: Homo sapiens, MCF7, 48 h; for inhibition at 100 µM: read-out: Growth Inhibition at 100 μM (%) MCF-7; for IC50: read-out: IC50 MCF-7; for Selectivity index MCF-7: IC50 on normal cells (L02)/IC50 on tumor cells (MCF-7)
# Description: as §1, §2, §3, §4
# L02 cells = assay: Antiproliferative activity against normal cell line L02; type: cell-based; settings: Homo sapiens, L02, read-out: L02 IC50
# Description: The lack of selective cytotoxicity is the main factor that restricts the dose of most conventional chemotherapeutic agents ([21]). […] Selectivity indexes between cancer cells and L02 cells were calculated.
# BEL-7402 cells [2] = assay: Apoptosis by flow cytometry (annexin V-FITC/PI); type: cell-based, human; settings: 24 h
# Description: Apoptosis was detected using an Apoptosis Detection Kit (Invitrogen, Eugene, OR, USA). Briefly, BEL-7402 cells were cultured in 6-well plates (1.0 × 10^6 cells per well) and incubated at 37 °C for 12 h. Cells with exponential growth were then incubated with compound 3s at different concentrations (5 μM and 20 μM). Following 24 h of incubation, the cells were collected, washed twice with PBS and once with 1 × binding buffer, and then stained with 5 […] and […] (5 mg/mL) in 1 × binding buffer for 30 min at 20 °C in the dark. Apoptotic cells were enumerated using a FACSCalibur flow cytometer with Cell Quest software (Becton–Dickinso, Franklin Lakes, NJ, USA).
# HCT116 cancer cells = test system: HCT116 cancer cells; set-up: method as in PMID 30981113; settings: HCT116 cancer cells ref 11; read-out: IC50 anti-proliferative activity HCT116; cited from earlier work
SMILES,IC50 (HCT116 cell line) [µM],IC50 (MCF-7 cell line) [µM],inhibition at 100 µM (BEL-7402 cells [1]) [%],IC50 (BEL-7402 cells [1]) [µM],Selectivity index BEL-7402 (BEL-7402 cells [1]),inhibition at 100 µM (HCT-116 cells) [%],IC50 (HCT-116 cells) [µM],Selectivity index HCT-116 (HCT-116 cells),inhibition at 100 µM (MCF-7 cells) [%],IC50 (MCF-7 cells) [µM],Selectivity index MCF-7 (MCF-7 cells),IC50 (L02 cells) [µM],early-stage apoptosis rate (LR) (BEL-7402 cells [2]; 5 μM) [%],late-stage apoptosis rate (UR) (BEL-7402 cells [2]; 5 μM) [%],dead cells (UL) (BEL-7402 cells [2]; 20 μM) [%],early-stage apoptosis rate (LR) (BEL-7402 cells [2]; 20 μM) [%],late-stage apoptosis rate (UR) (BEL-7402 cells [2]; 20 μM) [%],IC50 (HCT116 cancer cells) [µM],melting point [°C]
CC1=NN=C(C)C1=NNc1sc2c(c1C(N)=O)CCCCC2 [D],31.1,22.7,–,–,–,–,–,–,–,–,–,–,–,–,–,–,–,–,–
"O=C1NC(=O)C(=Cc2cn(-c3ccc(C(F)(F)F)cc3)nn2)C(=O)N1 [Compound 3s, 5-((1-(4-(trifluoromethyl)phenyl)-1H-1,2,3-triazol-4-yl)methylene)pyrimidine-2,4,6(1H,3H,5H)-trione]",–,–,95.3 ± 4.9,4.02 ± 0.5,20.45,62.9 ± 1.9,21.5 ± 1.19,3.82,90.4 ± 5.3,8.98 ± 0.99,9.15,82.2 ± 4.8,1.33,4.94,27.40,3.37,35.78,–,–
C=C1C(=O)[C@]23[C@H](OC(=O)c4cn(-c5ccc(OC)cc5)nn4)[C@H]1CC[C@H]2[C@@]12CO[C@]3(O)[C@@H](O)[C@@H]1C(C)(C)CC[C@@H]2O [Compound C],–,–,–,–,–,–,–,–,–,–,–,–,–,–,–,–,–,1.94,–
C=C1C(=O)[C@]23[C@H](O)[C@H]1CC[C@H]2[C@@]12CO[C@]3(O)[C@@H](O)[C@@H]1C(C)(C)CC[C@@H]2O [oridonin],–,–,–,–,–,–,–,–,–,–,–,–,–,–,–,–,–,6.84,–
"O=C1NC(=O)C(=Cc2cn(-c3cccc(Br)c3)nn2)C(=O)N1 [Compound 3k, 5-((1-(3-bromophenyl)-1H-1,2,3-triazol-4-yl)methylene)pyrimidine-2,4,6(1H,3H,5H)-trione]",–,–,81.6 ± 3.6,19.2 ± 1.8,3.46,88.9 ± 3.1,19.4 ± 1.67,3.42,31.7 ± 2.8,> 100,–,66.4 ± 5.1,–,–,–,–,–,–,250
"O=C1NC(=O)C(=Cc2cn(-c3ccc(Cl)cc3)nn2)C(=O)N1 [Compound 3g, 5-((1-(4-chlorophenyl)-1H-1,2,3-triazol-4-yl)methylene)pyrimidine-2,4,6(1H,3H,5H)-trione]",–,–,46.6 ± 4.6,> 100,–,68.5 ± 4.6,9.59 ± 1.01,8.36,23.9 ± 2.9,> 100,–,80.2 ± 6,–,–,–,–,–,–,250
"O=C1NC(=O)C(=Cc2cn(-c3cc(Cl)ccc3Cl)nn2)C(=O)N1 [Compound 3h, 5-((1-(2,5-dichlorophenyl)-1H-1,2,3-triazol-4-yl)methylene)pyrimidine-2,4,6(1H,3H,5H)-trione]",–,–,82.1 ± 3.2,9.49 ± 1.78,8.30,81.2 ± 4.2,18.9 ± 1.97,4.17,92.2 ± 8.5,75.9 ± 1.98,1.04,78.8 ± 3.9,–,–,–,–,–,–,250
